Assay results published in patent publication US11312723B2, “Pyranopyrazole and pyrazolopyridine immunomodulators for treatment of autoimmune diseases” (The Rockefeller University, priority 2017, dated 2022).
Where a name gives a salt, the structure may show the parent alone.

How the values were obtained:
[1] = test system: Collagen-Induced Arthritis (CIA) in DBA/1 Mice; assay: Collagen-Induced Arthritis (CIA) in DBA/1 mice, model of rheumatoid arthritis; type: in vivo, mouse
From the text: For in vivo confirmation of efficacy, Example 35 was studied in a model of rheumatoid arthritis. Collagen-Induced Arthritis (CIA) in DBA/1 Mice is one of the most commonly used animal models of human rheumatoid arthritis. The joint inflammation which develops in CIA resembles inflammation in human patients with rheumatoid arthritis. Therapeutic agents that reduce rheumatoid arthritis in people (e.g. NSAIDs, corticosteroids, methotrexate, etc) are also efficacious in CIA, and efficacy in the mouse CIA model has excellent predictive value for efficacy in rheumatoid arthritis. CIA is induced by immunization with type II collagen emulsified in Complete Freund's Adjuvant, followed by a booster immunization with type II collagen emulsified in incomplete Freund's Adjuvant. Three to four weeks after immunization, inflammation develops in mouse paws, Treatment is initiated at, the time of immunization and continues for 6 weeks. […] CIA is scored blind, by a person unaware of both treatment and of previous scores for each animal. The animal's score is the total of all four paw scores on scale of 0-16, where each paw is scored as follows: 0 Normal paw; 1 One toe inflamed and swollen; 2 More than one toe, but not entire paw, inflamed and swollen, or mild swelling of entire paw; 3 Entire paw inflamed and swollen; 4 Very inflamed and swollen paw or ankylosed paw.

Human alpha-thrombin = Human alpha-thrombin (Homo sapiens (Human), UniProt P00734); assay: Thrombin counterscreen for selectivity, fluorogenic substrate cleavage; type: biochemical; details: 10 min pre-incubation, Boc-Val-Pro-Arg-AMC 20 μM
Human FXIIa = Human FXIIa (Homo sapiens (Human), UniProt P00748); assay: Factor XIIa (FXIIa) inhibitory activity, chromogenic substrate (Pefachrome XIIa) cleavage; type: biochemical; details: 10 min pre-incubation, Pefachrome XIIa 400 μM
Sequence of Human FXIIa (P00748 373-615): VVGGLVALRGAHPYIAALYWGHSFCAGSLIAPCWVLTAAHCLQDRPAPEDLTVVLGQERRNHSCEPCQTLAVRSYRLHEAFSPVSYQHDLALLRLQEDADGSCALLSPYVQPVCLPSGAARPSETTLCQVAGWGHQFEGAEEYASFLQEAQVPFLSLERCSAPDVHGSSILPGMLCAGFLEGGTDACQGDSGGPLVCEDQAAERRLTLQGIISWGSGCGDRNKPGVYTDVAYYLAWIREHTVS
Sequence of Human FXIIa (P00748 20-372 partner): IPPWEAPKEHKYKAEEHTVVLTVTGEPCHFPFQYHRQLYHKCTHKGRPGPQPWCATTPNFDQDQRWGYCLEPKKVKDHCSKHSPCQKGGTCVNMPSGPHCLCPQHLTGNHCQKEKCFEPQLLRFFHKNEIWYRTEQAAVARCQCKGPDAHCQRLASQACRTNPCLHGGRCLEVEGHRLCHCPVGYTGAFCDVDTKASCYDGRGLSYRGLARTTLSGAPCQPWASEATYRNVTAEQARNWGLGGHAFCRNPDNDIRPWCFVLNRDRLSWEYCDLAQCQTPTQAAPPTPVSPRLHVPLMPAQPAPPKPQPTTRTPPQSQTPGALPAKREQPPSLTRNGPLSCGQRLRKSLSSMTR

Row | Compound | IC50 (Human alpha-thrombin) [µM] | IC50 (Human FXIIa) [µM] | Effect on disease phenotype compared to placebo ([1]; CIA model) | Maximum CIA score ± SD ([1]; scale 0-16, p value 0.0175 vs vehicle)
1 | Cc1cccc2c1NCCC2C(=O)n1nc2c(c1N)CCN(S(C)(=O)=O)C2 (single isomer, unassigned) [Example 35, (S*)-(3-amino-6-(methylsulfonyl)-4,5,6,7-tetrahydropyrazolo[3,4-c]pyridine-2-yl)(8-methyl-1,2,3,4-tetrahydroquinolin-4-yl)methanone] | 18 | 0.02 | significantly ameliorated the disease phenotype compared to placebo | 5.6 ± 3.7
2 | CC(C)C(=O)N1CCc2c(nn(C(=O)C3CCNc4ccccc43)c2N)C1 (centres unmarked) [Example 121, 1-(3-amino-2-(1,2,3,4-tetrahydro-quinoline-4-carbonyl)-4,5-dihydro-2H-pyrazolo[3,4-c]pyridin-6(7H)-yl)-2-methylpropan-1-one] | > 80 | 0.4 |  | 
3 | CN(C)C(=O)N1CCc2c(nn(C(=O)C3CCNc4ccccc43)c2N)C1 (centres unmarked) [Example 123, 3-amino-N,N-dimethyl-2-(1,2,3,4-tetrahydro-quinoline-4-carbonyl)-4,5-dihydro-2H-pyrazolo[3,4-c]pyridine-6(7H)-carboxamide] | > 80 | 0.35 |  | 
4 | CCS(=O)(=O)N1CCc2c(nn(C(=O)C3CCNc4ccccc43)c2N)C1 (centres unmarked) [Example 125, (3-amino-6-(ethylsulfonyl)-4,5,6,7-tetrahydro-pyrazolo[3,4-c]pyridin-2-yl)(1,2,3,4-tetrahydro-quinolin-4-yl)methanone] | 100 | 0.25 |  | 
5 | CCS(=O)(=O)N1CCc2c(N)nn(C(=O)C3CCNc4ccccc43)c2C1 (centres unmarked) [Example 126, (3-amino-6-(ethylsulfonyl)-4,5,6,7-tetrahydro-pyrazolo[3,4-c]pyridin-1-yl)(1,2,3,4-tetrahydro-quinolin-4-yl)methanone] | > 70 | 32 |  | 
6 | CC(C)S(=O)(=O)N1CCc2c(nn(C(=O)C3CCNc4ccccc43)c2N)C1 (centres unmarked) [Example 127, (3-amino-6-(isopropyl-sulfonyl)-4,5,6,7-tetrahydro-pyrazolo[3,4-c]pyridin-2-yl)(1,2,3,4-tetrahydro-quinolin-4-yl)methanone] | > 70 | 0.2 |  | 
7 | CC(C)S(=O)(=O)N1CCc2c(N)nn(C(=O)C3CCNc4ccccc43)c2C1 (centres unmarked) [Example 128, (3-amino-6-(isopropyl-sulfonyl)-4,5,6,7-tetrahydro-pyrazolo[3,4-c]pyridin-1-yl)(1,2,3,4-tetrahydro-quinolin-4-yl)methanone] | > 65 | 28 |  | 
8 | CC(C)S(=O)(=O)N1CCc2c(nn(C(=O)C3CCNc4ccc(F)cc43)c2N)C1 (centres unmarked) [Example 136, (3-amino-6-(isopropyl-sulfonyl)-4,5,6,7-tetrahydro-pyrazolo[3,4-c]pyridin-2-yl)(6-fluoro-1,2,3,4-tetrahydro-quinolin-4-yl)methanone] | > 55 | 0.08 |  | 
9 | CC(C)(C)S(=O)(=O)N1CCc2c(nn(C(=O)C3CCNc4ccc(F)cc43)c2N)C1 (centres unmarked) [Example 138, (3-amino-6-(tert-butylsulfonyl)-4,5,6,7-tetrahydro-pyrazolo[3,4-c]pyridin-2-yl)(6-fluoro-1,2,3,4-tetrahydro-quinolin-4-yl)methanone] | > 100 | 0.08 |  | 
10 | Nc1c2c(nn1C(=O)C1CCNc3ccc(F)cc31)CN(S(=O)(=O)CF)CC2 (centres unmarked) [Example 140, (3-amino-6-(fluoromethyl-sulfonyl)-4,5,6,7-tetrahydro-pyrazolo[3,4-c]pyridin-2-yl)(6-fluoro-1,2,3,4-tetrahydro-quinolin-4-yl)methanone] | 60 | 0.13 |  | 
11 | Nc1c2c(nn1C(=O)C1CCNc3ccc(F)cc31)CN(S(=O)(=O)CC(F)F)CC2 (centres unmarked) [Example 142, (3-amino-6-(2,2-difluoroethyl-sulfonyl)-4,5,6,7-tetrahydro-pyrazolo[3,4-c]pyridin-2-yl)(6-fluoro-1,2,3,4-tetrahydro-quinolin-4-yl)methanone] | 40 | 0.2 |  | 

More lines, main results first:

Row | IC50 (Human alpha-thrombin) [µM] | IC50 (Human FXIIa) [µM] | Compound | Effect on disease phenotype compared to placebo ([1]; CIA model) | Maximum CIA score ± SD ([1]; scale 0-16, p value 0.0175 vs vehicle)
12 | > 80 | 0.23 | Nc1c2c(nn1C(=O)C1CCNc3ccc(F)cc31)CN(S(=O)(=O)C1CC1)CC2 (centres unmarked) [Example 144, (3-amino-6-(cyclopropyl-sulfonyl)-4,5,6,7-tetrahydro-pyrazolo[3,4-c]pyridin-2-yl)(6-fluoro-1,2,3,4-tetrahydro-quinolin-4-yl)methanone] |  | 
13 | 64 | 0.05 | CCCN1CCc2c(nn(C(=O)C3CCNc4ccc(F)cc43)c2N)C1 (centres unmarked) [Example 149, (3-amino-6-propyl-4,5,6,7-tetrahydro-pyrazolo[3,4-c]pyridin-2-yl)(6-fluoro-1,2,3,4-tetrahydro-quinolin-4-yl)methanone] |  | 
14 | > 70 | 0.04 | CC(C)N1CCc2c(nn(C(=O)C3CCNc4ccc(F)cc43)c2N)C1 (centres unmarked) [Example 151, Formic Acid salt of (3-amino-6-isopropyl-4,5,6,7-tetrahydro-pyrazolo[3,4-c]pyridin-2-yl)(6-fluoro-1,2,3,4-tetrahydro-quinolin-4-yl)methanone] |  | 
15 | > 100 | 0.05 | CC(C)CN1CCc2c(nn(C(=O)C3CCNc4ccc(F)cc43)c2N)C1 (centres unmarked) [Example 153, (3-amino-6-isobutyl-4,5,6,7-tetrahydro-pyrazolo[3,4-c]pyridin-2-yl)(6-fluoro-1,2,3,4-tetrahydro-quinolin-4-yl)methanone] |  | 
16 | 15 | 0.7 | Nc1c2c(nn1C(=O)C1CCNc3ccc(F)cc31)CN(S(=O)(=O)c1cccnc1)CC2 (centres unmarked) [Example 157, (3-amino-6-(pyridin-3-ylsulfonyl)-4,5,6,7-tetrahydro-pyrazolo[3,4-c]pyridin-2-yl)(6-fluoro-1,2,3,4-tetrahydro-quinolin-4-yl)methanone] |  | 
17 | 70 | 0.13 | Nc1c2c(nn1C(=O)C1CCNc3ccc(F)cc31)CN(S(=O)(=O)C(F)F)CC2 (centres unmarked) [Example 159, (3-amino-6-(difluoromethyl-sulfonyl)-4,5,6,7-tetrahydro-pyrazolo[3,4-c]pyridin-2-yl)(6-fluoro-1,2,3,4-tetrahydro-quinolin-4-yl)methanone] |  | 
18 | 20 | 0.05 | CCN1CCc2c(nn(C(=O)C3CCNc4ccc(Cl)cc43)c2N)C1 (centres unmarked) [Example 161, (3-amino-6-ethyl-4,5,6,7-tetrahydro-pyrazolo[3,4-c]pyridin-2-yl)(6-chloro-1,2,3,4-tetrahydro-quinolin-4-yl)methanone] |  | 
19 | > 100 | 0.03 | CCN1CCc2c(nn(C(=O)C3CCNc4ccc(F)cc43)c2N)C1 (centres unmarked) [Example 163, (3-amino-6-ethyl-4,5,6,7-tetrahydro-pyrazolo[3,4-c]pyridin-2-yl)(6-fluoro-1,2,3,4-tetrahydro-quinolin-4-yl)methanone] |  | 
20 | > 120 | 60 | Nc1c2c(nn1C(=O)C1CCNc3ccc(F)cc31)CN(c1ccccn1)CC2 (centres unmarked) [Example 167, (3-amino-6-(pyridin-2-yl)-4,5,6,7-tetrahydro-pyrazolo[3,4-c]pyridin-2-yl)(6-fluoro-1,2,3,4-tetrahydro-quinolin-4-yl)methanone] |  | 
21 | 3.5 | 2 | CS(=O)(=O)N1CCc2c(nn(C(=O)C3CCNc4ccc(-c5ccncc5)cc43)c2N)C1 (centres unmarked) [Example 168, (3-amino-6-(methylsulfonyl)-4,5,6,7-tetrahydro-pyrazolo[3,4-c]pyridin-2-yl)(6-(pyridin-4-yl)-1,2,3,4-tetrahydro-quinolin-4-yl)methanone] |  | 
22 | 15 | 15 | CS(=O)(=O)N1CCc2c(N)nn(C(=O)C3CCNc4ccc(-c5ccncc5)cc43)c2C1 (centres unmarked) [Example 169, (3-amino-6-(methylsulfonyl)--4,5,6,7-tetrahydro-pyrazolo[3,4-c]pyridin-1-yl)(6-(pyridin-4-yl)-1,2,3,4-tetrahydro-quinolin-4-yl)methanone] |  | 
23 | > 80 | 0.17 | Cc1cccc2c1NCCC2C(=O)n1nc2c(c1N)COCC2 (centres unmarked) [Example 188, (3-amino-6,7-dihydropyrano[4,3-c]pyrazol-2(4H)-yl)(8-methyl-1,2,3,4-tetrahydro-quinolin-4-yl)methanone] |  | 
24 | 70 | 0.16 | Nc1c2c(nn1C(=O)C1CCNc3ccc(F)cc31)COCC2 (centres unmarked) [Example 194, (3-amino-4,5-dihydropyrano[3,4-c]pyrazol-2(7H)-yl)(6-fluoro-1,2,3,4-tetrahydro-quinolin-4-yl)methanone] |  | 
